Measurements taken from patent US11046949B2, “Method and system for microbial lysis using periodates” (priority 2014, dated 2021).
“And” between values parts separate entries of the source, which are not always exact repeats. Identical values can stand only once. Like-named read-outs stand apart in the source and are kept apart here.

Columns and labels:
Mycobacteria = assay: Release of DNA from Mycobacteria by solvents, detergents, formic acid, borate; format: cell-based, Mycobacterium; conditions: solvents to strip waxy cell wall component
Description: The hardy cell wall of Mycobacterium consists of a thick, waxy, hydrophobic, mycolate layer and a peptidoglycan layer held together by polysaccharide. […] Similarly, various detergents (e.g., SDS), formic acid, and borate were tested at elevated temperatures.

[1] = system: Bacillus subtilis vegetative cells; assay: DNA release from B. subtilis by per-halogenated and oxidizing compounds, Acid-Hydrolysis HPLC Method; format: cell-based; conditions: 70° C. 20 minutes; for % DNA release / AUC, Ade: 15 mM compound in BD buffer, samples 1-3; for % DNA release (Average) / AUC, Ade (Average): 15 mM compound, average of 3
S. aureus [2] = format: cell-based, Staphylococcus aureus; conditions: BD2 buffer
B. thuringiensis [3] = format: cell-based, Bacillus thuringiensis; conditions: BD2 buffer
B. thuringiensis [4] = format: cell-based, Bacillus thuringiensis; conditions: periodate +, BD2 buffer
[5] = target: Pancreatic Ribonuclease A (Bos taurus, UniProt P61823); assay: Pure pancreatic ribonuclease A treated with periodate, SDS-PAGE; conditions: 15 mM periodate, 70° C. 15 minutes, FIG. 12
C. albicans [6] = format: cell-based, Candida albicans; conditions: BD2 buffer
[7] = system: M. tuberculosis in TB-positive sputum; assay: TB-positive sputum, qPCR targeting RD4 MTBC region of difference; format: cell-based, Mycobacterium tuberculosis
[8] = system: attenuated MTB H37Ra (aMTB) spiked in sputum; assay: DNA isolated from aMTB-spiked sputum using swabs and periodate, RD4 rtPCR
[9] = system: Mycobacterium smegmatis lysate proteins; assay: M. smegmatis lysate treated with periodate, SDS-PAGE; conditions: 7.5 and 15 mM periodate, 70° C. 15 minutes, FIG. 13
[10] = system: attenuated M. tuberculosis (aMTB) spiked in saliva; format: cell-based, Mycobacterium tuberculosis
S. aureus [11] = format: cell-based, Staphylococcus aureus; conditions: periodate +, BD2 buffer
K. pneumonia [12] = format: cell-based, Klebsiella pneumonia; conditions: BD2 buffer
[13] = system: C. botulinum Type B spores; format: cell-based, Clostridium botulinum; conditions: Post-Periodate: BD2 buffer, 30 mM NPI, 70° C. 20 minutes, FIG. 16
K. pneumonia [14] = format: cell-based, Klebsiella pneumonia; conditions: periodate +, BD2 buffer
Mycobacterium smegmatis = assay: NPI-mediated release of DNA from M. smegmatis as a function of pH, Acid-Extraction HPLC Method
[15] = target: pancreatic ribonuclease A (RNase A) (Bos taurus, UniProt P61823); assay: Inhibition of RNase A by pre-treatment with periodate, HeLa RNA integrity on agarose gel; conditions: RNase A pre-incubated with 15 mM periodate, 70° C. 15 minutes, FIG. 14
M. catarrhalis [16] = format: cell-based, Moraxella catarrhalis; conditions: periodate +, BD2 buffer
P. aeruginosa [17] = format: cell-based, Pseudomonas aeruginosa; conditions: BD2 buffer
Y. enterocolitica [18] = format: cell-based, Yersinia enterocolitica; conditions: BD2 buffer
P. aeruginosa [19] = format: cell-based, Pseudomonas aeruginosa; conditions: periodate +, BD2 buffer
F. philomiragia [20] = format: cell-based, Francisella philomiragia; conditions: periodate +, BD2 buffer
[21] = system: B. anthracis Sterne Strain spores; format: cell-based, Bacillus anthracis; conditions: Post-Periodate: BD2 buffer, 30 mM NPI, 70° C. 20 minutes, FIG. 15
C. albicans [22] = conditions: periodate +, BD2 buffer
M. smegmatis [23] = format: cell-based, Mycobacterium smegmatis; conditions: BD2 buffer
Y. enterocolitica [24] = format: cell-based, Yersinia enterocolitica; conditions: periodate +, BD2 buffer
M. catarrhalis [25] = format: cell-based, Moraxella catarrhalis; conditions: BD2 buffer
M. smegmatis [26] = format: cell-based, Mycobacterium smegmatis; conditions: periodate +, BD2 buffer
F. philomiragia [27] = format: cell-based, Francisella philomiragia; conditions: BD2 buffer
C. difficile spores = format: cell-based, Clostridium difficile

Pancreatic Ribonuclease A, sequence (P61823 27-150): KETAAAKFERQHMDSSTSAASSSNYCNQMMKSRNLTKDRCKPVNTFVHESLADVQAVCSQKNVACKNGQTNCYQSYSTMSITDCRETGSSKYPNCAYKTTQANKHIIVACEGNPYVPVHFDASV
pancreatic ribonuclease A (RNase A), sequence (P61823 27-150): as above

C[S+](C)[O-] [DMSO]
release of DNA (Mycobacteria): no increased release of DNA was observed

O.O.O.O.[Na+].[O-]B1OO1 [Perborate, sodium perborate tetrahydrate, reference compound]
% DNA release [1]: 5.5% and 6.3% and 6.4% | AUC, Ade [1]: 70 and 80 and 82 | % DNA release (Average) [1]: 6.1% | AUC, Ade (Average) [1]: 77.3

[O-][I+3]([O-])([O-])O [Periodate, sodium (meta)periodate]
% DNA Released (S. aureus [2]; 35° C. 20 minutes): 18.4% | % DNA Released (S. aureus [2]; 70° C. 20 minutes): 24.8% | % DNA Released (S. aureus [2]; 80° C. 20 minutes): 26.7% | % DNA Released (B. thuringiensis [3]; 35° C. 20 minutes): 42.1% | % DNA Released (B. thuringiensis [3]; 70° C. 20 minutes): 103.5% | % DNA Released (B. thuringiensis [3]; 80° C. 20 minutes): 107.7% | Ct values (B. thuringiensis [4]; 35° C. 20 minutes): 15.5 | Ct values (B. thuringiensis [4]; 70° C. 20 minutes): 10.3 | Ct values (B. thuringiensis [4]; 80° C. 20 minutes): 10.8 | quantity of full-length purified RNase protein [5]: decreased | % DNA Released (C. albicans [6]; 35° C. 20 minutes): 105.4% | % DNA Released (C. albicans [6]; 70° C. 20 minutes): 155.3% | % DNA Released (C. albicans [6]; 80° C. 20 minutes): 156.4% | Real-time PCR Ct value (in duplicate) [7]: 32/32 and 41/33 and 23/23 and 33/33 and 19/19 and 24/25 | Periodate efficiency (Ct Swab 6 (−) Ct average) ([8]; 1:10 dilution of DNA, Copan): 3.78 | Periodate efficiency (Ct Swab 6 (−) Ct average) ([8]; 1:10 dilution of DNA, Puritan): 5.72 | Ct value (1:10 dilution of DNA) Copan, Average ([8]; (+) periodate): 27.55 | Ct value (1:10 dilution of DNA) Puritan, Average ([8]; (+) periodate): 27.11 | Ct value (neat DNA) Copan, Average ([8]; (+) periodate): 24.02 | Ct value (neat DNA) Puritan, Average ([8]; (+) periodate): 23.69 | Ct value (1:10 dilution of DNA) Copan ([8]; (+) periodate 30 mM, Swabs 1-5): 26.49 and 28.11 and 29.12 and 33.99 and 26.47 | Ct value (1:10 dilution of DNA) Puritan ([8]; (+) periodate 30 mM, Swabs 1-5): 26.24 and 27.74 and 26.60 and 27.29 and 27.67 | Ct value (neat DNA) Copan ([8]; (+) periodate 30 mM, Swabs 1-5): 22.99 and 24.60 and 25.55 and 30 .09 and 22.93 | Ct value (neat DNA) Puritan ([8]; (+) periodate 30 mM, Swabs 1-5): 22.67 and 24.19 and 23.28 and 23.93 and 24.36 | Periodate efficiency (Ct Swab 6 (−) Ct average) ([8]; neat DNA, Copan): 3.73 | Periodate efficiency (Ct Swab 6 (−) Ct average) ([8]; neat DNA, Puritan): 3.93 | increase in the amount of aMTB-specific DNA recovered per swab ([8]; periodate included vs not included): > 10 fold | protein bands in cell-free lysate [9]: some protein bands selectively decreased or disappeared altogether | Growth (up to 42 days) [10]: NEG | Time to Positive [10]: >42 days | growth on LJ medium [10]: no growth of any microorganism was observed | Ct values (S. aureus [11]; 35° C. 20 minutes): 15.5 | Ct values (S. aureus [11]; 70° C. 20 minutes): 13.7 | Ct values (S. aureus [11]; 80° C. 20 minutes): 15.0 | % DNA Released (K. pneumonia [12]; 35° C. 20 minutes): 49.0% | % DNA Released (K. pneumonia [12]; 70° C. 20 minutes): 119.2% | % DNA Released (K. pneumonia [12]; 80° C. 20 minutes): 124.4% | spore viability by culture [13]: no C. botulinum or C. difficile spores were viable by culture | Ct values (K. pneumonia [14]; 35° C. 20 minutes): 24.3 | Ct values (K. pneumonia [14]; 70° C. 20 minutes): 9.3 | Ct values (K. pneumonia [14]; 80° C. 20 minutes): 9.6 | percentage of total DNA released (Mycobacterium smegmatis; 6 mM NPI in PAB buffer solutions pH 3.7-9.4, 70° C. 20 minutes): 37.4-59.4% | increase of percentage of total DNA released vs no NPI (Mycobacterium smegmatis; 6 mM NPI, 70° C. 20 minutes): approximately 9 fold | RNase A activity on HeLa ribosomal RNA [15]: ribosomal RNA was no longer degraded by RNase A | Ct values (M. catarrhalis [16]; 35° C. 20 minutes): 16.3 | Ct values (M. catarrhalis [16]; 70° C. 20 minutes): 12.7 | Ct values (M. catarrhalis [16]; 80° C. 20 minutes): 10.8 | % DNA Released (P. aeruginosa [17]; 35° C. 20 minutes): 38.6% | % DNA Released (P. aeruginosa [17]; 70° C. 20 minutes): 117.8% | % DNA Released (P. aeruginosa [17]; 80° C. 20 minutes): 98.2% | % DNA Released (Y. enterocolitica [18]; 35° C. 20 minutes): 52.1% | % DNA Released (Y. enterocolitica [18]; 70° C. 20 minutes): 80.8% | % DNA Released (Y. enterocolitica [18]; 80° C. 20 minutes): 89.5% | Ct values (P. aeruginosa [19]; 35° C. 20 minutes): 10.8 | Ct values (P. aeruginosa [19]; 70° C. 20 minutes): 7.8 | Ct values (P. aeruginosa [19]; 80° C. 20 minutes): 8.8 | Ct values (F. philomiragia [20]; 35° C. 20 minutes): 15.3 | Ct values (F. philomiragia [20]; 70° C. 20 minutes): 15.5 | Ct values (F. philomiragia [20]; 80° C. 20 minutes): 16.0 | spore viability by culture [21]: dramatically reduced the viability | Ct values (C. albicans [22]; 35° C. 20 minutes): 27.1 | Ct values (C. albicans [22]; 70° C. 20 minutes): 15.2 | Ct values (C. albicans [22]; 80° C. 20 minutes): 15.7 | % DNA Released (M. smegmatis [23]; 35° C. 20 minutes): 49.7% | % DNA Released (M. smegmatis [23]; 70° C. 20 minutes): 85.2% | % DNA Released (M. smegmatis [23]; 80° C. 20 minutes): 80.6% | Ct values (Y. enterocolitica [24]; 35° C. 20 minutes): 15.5 | Ct values (Y. enterocolitica [24]; 70° C. 20 minutes): 12.0 | Ct values (Y. enterocolitica [24]; 80° C. 20 minutes): 11.4 | % DNA release [1]: 46.6% and 48.0% and 37.4% | AUC, Ade [1]: 594 and 611 and 476 | % DNA release (Average) [1]: 44.0% | AUC, Ade (Average) [1]: 560.3 | % DNA release (Average) ([1]; listed as sodium (meta)periodate): 44% | % DNA Released (M. catarrhalis [25]; 35° C. 20 minutes): 77.1% | % DNA Released (M. catarrhalis [25]; 70° C. 20 minutes): 143.6% | % DNA Released (M. catarrhalis [25]; 80° C. 20 minutes): 140.5% | Ct values (M. smegmatis [26]; 35° C. 20 minutes): 22.8 | Ct values (M. smegmatis [26]; 70° C. 20 minutes): 18.1 | Ct values (M. smegmatis [26]; 80° C. 20 minutes): 17.9 | % DNA Released (F. philomiragia [27]; 35° C. 20 minutes): 65.3% | % DNA Released (F. philomiragia [27]; 70° C. 20 minutes): 89.4% | % DNA Released (F. philomiragia [27]; 80° C. 20 minutes): 92.0% | spore viability by culture (C. difficile spores): no C. botulinum or C. difficile spores were viable by culture

O=S(=O)([O-])OOS(=O)(=O)[O-].[Na+].[Na+] [Persulfate, sodium persulfate]
% DNA release [1]: 15.9% and 14.7% and 14.3% | AUC, Ade [1]: 202 and 187 and 182 | % DNA release (Average) [1]: 15.0% | AUC, Ade (Average) [1]: 190.3 | % DNA release (Average) ([1]; listed as sodium persulfate): 15%

[Na+].[O-][Cl+3]([O-])([O-])[O-] [Perchlorate, sodium perchlorate, reference compound]
% DNA release [1]: 6.2% and 6.7% and 6.4% | AUC, Ade [1]: 79 and 85 and 81 | % DNA release (Average) [1]: 6.4% | AUC, Ade (Average) [1]: 81.7
